Assay results taken from patent publication US20150306107A1, “SAA Derivative Compound Restores eNOS And Inhibits Oxidative Stress-Induced A Diseases In Hypoxia” (JANSFAT BIOTECHNOLOGY CO., LTD., priority 2014, published 2015).

Assays:
VEGF [1] = test: Immunohistochemistry of VEGF in pulmonary artery wall after long-term hypoxia; type: in vivo, rat
Method: (§1) For histological analysis, the rat pulmonary right lung sections or pulmonary artery were fixed in 4% formaldehyde for 1 hour at 4° C. After washing with phosphate buffer saline (PBS), they were sent for paraffin-embedded serial-sections. Serial cross-sections 7 μm thick were obtained from the cross-section of each pulmonary artery. Tissue sections were deparaffinized and rehydrated in an ethanol series. After tissue rehydration, endogenous peroxidase activity was quenched with 3% hydrogen peroxide for 30 minutes, and the sections were gently washed in PBS. Non-specific binding was blocked by incubation with 1% nonimmune bovine serum albumin (BSA) in PBS for 30 minutes at room temperature.
(§2) The tissue sections were incubated for 1 hour at room temperature with antibody against VEGF (ab1442, Millipore) or against eNOS (ab5589, Abcam) diluted 1:200 in PBS with 1% BSA. After being washed with PBS, the sections were incubated for 1 hour at room temperature with biotinylated goat antibody against rabbit (Dako, E-0432) and diluted 1:200 in PBS for 30 minutes at room temperature. The reaction was visualized by the addition of 3-3-diaminobenzidine (DAB) in a working solution of DAB substrate kit for peroxidase (vector lab, SK-4100) at room temperature for 5 minutes. The sections were washed in PBS for 10 minutes between each step, and counterstained with haematoxylin. […]

PDE5A = conditions: hypoxia 21 days; % of the normal level; hypoxia 43.8±12.6%
ROCK II = test: Western blotting of ROCK II expression in isolated rat pulmonary artery ring, short-term (acute) hypoxia or normoxia; type: cell-based
Method: (§3) In our in vitro short-term experiment, isolated rat pulmonary artery was grown under normoxia (20% O2) or hypoxia (1% O2) at 37° C. for 24 hrs as was previously done (Wu BN, et al. Int J Immunopathol Pharmacol 24:925, 2011). The heart weight and body weight ratio (HW/BW) of the rats treated with one of SPAAX-1, SPAAX-1 RX complex, Sildenafil or Sildenafil RX complex each measured on the 21st hypoxic day. All animal care and the experimental protocols of this study were approved by the Animal Care and Use Committee of the Kaohsiung Medical University. Male Wistar rats (200-250 g), provided by the National Laboratory Animal Breeding and Research Center (Taipei, Taiwan), were housed under constant temperature and controlled illumination. Food and water were available ad libitum.
(§4) Whole right lung tissues of hypoxia-treated and untreated rats were isolated and cut into small strips and placed into an extraction buffer (Tris 10 mM, pH 7.0, NaCl 140 mM, PMSF 2 mM, DTT 5 mM, NP-40 0.5%, pepstatin A 0.05 mM and leupeptin 0.2 mM) for protein extraction, and then centrifuged at 12,500 g for 30 min. To measure the expression levels of the proteins, the total proteins were extracted and Western blotting analysis was performed as described previously (Bivalacqua T J, et al., 2013, TJ PLoSONE 8: e68028. doi:10.1371/journal. pone.0068028). Briefly, the protein extract was boiled to a ratio of 4:1 with a sample buffer (Tris 100 mM, pH 6.8, glycerol 20%, SDS 4% and bromophenol blue 0.2%). Electrophoresis was performed using 10% SDS-polyacrylamide gel (2 hr, 100 V, 40 mA, […] protein per lane). Separated proteins were transferred to PVDF membranes treated with 5% fat-free milk powder to block the nonspecific IgGs (90 min, 100 V) and incubated for one hour with a specific protein antibody. The blot was then incubated with anti-mouse or anti-goat IgG linked to alkaline phosphatase (1:1000) for 1 hr. Immunoreactive bands were visualized using horseradish peroxidase-conjugated secondary antibodies and subsequent electrochemiluminescence (ECL) detection (GE Healthcare Bio-Sciences Corp., Piscataway, N.J., U.S.A.). Mouse or rabbit monoclonal antibody of eNOS (Upstate, N.Y., U.S.A.), sGCα (Sigma-Adrich, CA, U.S.A., sGCβ (Santa Cruz, Calif., U.S.A.), PDE-5A (BD Tansduction, San Jose, Calif., U.S.A.), PKG (Calbiochem, San Diego, Calif., U.S.A.) ROCKII (Upstate, N.Y., U.S.A.), RhoA (Santa Cruze, Calif., U.S.A.) and the loading control protein β-actin (Sigma-Adrich, MO, U.S.A.) were used in our Western blot analysis.
(§5) The Western blotting analysis measurements were performed as per lung tissue.

VEGF [2] = test: Western blotting of VEGF in lung tissue after long-term hypoxia; type: in vivo, rat; conditions: hypoxia 21 days; hypoxia 168.9±24.6%
eNOS [3] = test: Immunohistochemistry of eNOS in pulmonary artery wall after long-term hypoxia; type: in vivo, rat
Method: as §1, §2

sGCα1 = test: Western blotting of sGCα1 expression in isolated pulmonary artery, short-term hypoxia; type: cell-based, rat
Method: as §3
Whole right lung tissues of hypoxia-treated and untreated rats were isolated and cut into small strips and placed into an extraction buffer (Tris 10 mM, pH 7.0, NaCl 140 mM, PMSF 2 mM, DTT 5 mM, NP-40 0.5%, pepstatin A 0.05 mM and leupeptin 0.2 mM) for protein extraction, and then centrifuged at 12,500 g for 30 min. To measure the expression levels of the proteins, the total proteins were extracted and Western blotting analysis was performed as described previously (Bivalacqua T J, et al., 2013, TJ PLoSONE 8: e68028. doi:10.1371/journal. pone.0068028). […]

[4] = test system: reactive oxygen species (ROS) of lung tissues; conditions: long-term hypoxia
Method: In our in vivo hypoxic experiments, 10-week old male Wistar rats were equally divided into four groups: a normoxia group, a hypoxia group, a hypoxia+SPAAX-1 or SPAAX-1 RX complex group, and a hypoxia+Sildenafil or Sildenafil RX complex group. All the rats were maintained on a 12-h light/12-hr dark cycle at 25±1° C. and were provided with food and water ad libitum. The normoxia group was housed in standard normoxic conditions and the other three treated groups were continuously housed in a hypoxic chamber (10% O2) for 21 days, except for a 30-min interval each day when the chamber was cleaned (FIG. 2). During which, a normoxic gas mixture was prepared from compressed air.
Pulmonary ROS was measured using 2′-7′-dichloro-fluorescein (H2DCF-DA, Molecular Probe, USA). Briefly, 10 μl of lung tissue extract was diluted 100-fold with cold PBS and labelled with 5 μmol/L 2′-7′-dichlorofluorescein, and the mixture was incubated at 37° C. for 30 minutes and put in a centrifuge (1000 rpm) for 5 min. Fluorescence was measured at 485 nm excitation and 530 nm emission to determine the concentration of H2O2 (FLUOstar Galaxy, Germany).

eNOS [5] = test: Western blotting of eNOS expression in isolated rat pulmonary artery ring, short-term (acute) hypoxia or normoxia; type: cell-based
Method: as §3, §4, §5

eNOS [6] = test: Western blotting of eNOS in lung tissue after long-term hypoxia; type: in vivo, rat; conditions: hypoxia 21 days; compared to normoxia control
NOx in lung tissue = conditions: 21 days of hypoxia; control group 100%, hypoxia 59.8±3.7%
Method: All the rats were maintained on a 12-h light/12-hr dark cycle at 25±1° C. and were provided with food and water ad libitum. The normoxia group was housed in standard normoxic conditions and the other three treated groups were continuously housed in a hypoxic chamber (10% O2) for 21 days, except for a 30-min interval each day when the chamber was cleaned (FIG. 2). During which, a normoxic gas mixture was prepared from compressed air.
Production of NO, represented by its metabolite nitrate+nitrite (NOx), in lung tissue extracts was determined using the Griess method (Chung H H et al, Br J Pharmacol 160: 971, 2010; Vascular Pharmacology 53: 239, 2010). The three step Greiss test converts nitrate (NO3^−) into nitrite (NO2^−), resulting in a total NO2^− concentration from a standard calibration curve. The lung tissue extracts were homogenized, washed with PBS and incubated in a lysis buffer in addition to a protease inhibitor cocktail (Sigma, St. Louis, Mo.) to obtain the extracts of lung proteins. […] The samples were then incubated (25° C, 10 min) with Griess reagent [N-(1-naphthyl)-ethylenediamine: 0.2% (w/v), sulphanilamide: 2% (w/v), solubilized in double-distilled water: 95% and phosphoric acid: 5% (v/v)] and the absorbance measured at 540 nm. […]

VEGF [7] = test: Western blotting of VEGF expression in isolated rat pulmonary artery ring, short-term (acute) hypoxia; type: cell-based; conditions: isolated pulmonary artery
Method: as §3, §4, §5

hypoxic rats = test: Right ventricular hypertrophy (RV/LV+S, right heart index) after long-term hypoxia; type: in vivo, rat
Method: The right lobes of the rat lungs and heart of six rats from each group were cut and soaked in formalin, dehydrated through graded alcohols, and embedded in paraffin wax. The lung tissue specimens fixed with formalin (4%) were embedded in paraffin for one hour at 4° C., cut into 4-μm-thick sections, and subjected to H&E staining before examination by light microscope. In our histopathological study, we measured the thickening of the medial wall of the small intrapulmonary arteries under an Eclipse TE2000-S (Nikon) microscope. In the heart tissues, the 4-μm-thick paraffin sections were cut from paraffin-embedded tissue blocks and de-paraffinized by immersion in xylene and rehydrated as previously described (Bivalacqua T J, et al., PLoSONE 8: e68028. doi:10.1371/journal. pone.0068028). The slices were then dyed with H&E. After gently rinsing with water, each slide was dehydrated through graded alcohols and finally soaked in xylene twice. The relative cardiac weight of right ventricle (RV)/[left ventricle (LV)+intraventricular septum (S)] ratio (i.e. right heart index) was calculated using right ventricle/left ventricle+septum (RV/LV+S). Measurements were obtained with Histolab software (Microvision Instruments, Evry, France).

[8] = normoxia for 24 hrs, 10 μm, versus non-treated controls

In the case of `Cn1c(=O)c2c(ncn2CCN2CCN(c3ccccc3Cl)CC2)n(C)c1=O.O=C1O[C@H]([C@@H](O)CO)C(O)=C1O` [SPAAX-1 ascorbate complex, 7-[2-[4-(2-chlorobenzene)piperazinyl]ethyl]-1,3-dimethylxanthine.ascorbic acid], the “VEGF immunostaining reactivity of pulmonary artery” value (VEGF [1]) is reported as “reduced”, the “PDE5A expression in lung tissue” value (PDE5A) is reported as 76.9±4.9% and the “expression of ROCK II in isolated hypoxic pulmonary artery” value (ROCK II; hypoxia for 24 hrs, versus control level in normoxia, hypoxia 180±10.2%) is reported as 140±9.0%. For the same compound, the “Expression of ROCK II in isolated pulmonary artery ring” value (ROCK II; [8]) was 48.2±5.5%, the “VEGF expression in lung tissue” value (VEGF [2]) was 120.9±22.2% and the “eNOS immunostaining reactivity of pulmonary artery” value (eNOS [3]) was “restored the decay of eNOS”. For the same compound, the SGC-a in hypoxia (sGCα1) was “neither SPAAX-1 ascorbate complex nor Sildenafil ascorbate complex significantly affected”, the “hypoxia-induced increase of dichlorofluorescein (ROS of lung tissues)” value [4] was “reduced” and the “eNOS in isolated hypoxic pulmonary artery” value (eNOS [5]; hypoxia for 24 hrs, versus control level in normoxia, hypoxia 60±8.3%) was 45±3.0%. The “eNOS in acute hypoxia” value (eNOS [5]; isolated pulmonary artery, acute hypoxia) was “restored”, the “expression of eNOS in isolated pulmonary artery ring” value (eNOS [5]; [8]) was 117.9±9.1% and the “eNOS expression in lung tissue” value (eNOS [6]) was 139.7±16.9%. The “levels of NOx in lung tissue” value (NOx in lung tissue) was 86.3±17.3%, the “VEGF in acute hypoxia” value (VEGF [7]) was “inhibited” and the “thickness of Right ventricular” value (hypoxic rats; compared to the hypoxia state) was “reduced”. For the same compound, the “right heart index, RV/(LV+S) weight ratio” value (hypoxic rats; hypoxia 21 days, relative to normoxia rats, hypoxia 184.6±0.7%) was 117.4±2.6%.
